# Test results reported in patent US20090264528A1, “SERINE PALMITOYLCOA TRANSFERASE (SPT) INHIBITION BY MYRIOCIN OR GENETIC DEFICIENCY DECREASES CHOLESTEROL ABSORPTION” (The Research Foundation of State University of New York, priority 2008, published 2009).
# How the values were obtained:
# primary enterocyte = assay: Cholesterol and oleic acid uptake by primary enterocytes; assay type: cell-based, mouse
# Description: FIGS. 6A-D depict several graphs that illustrate that SPT deficient enterocytes absorb less cholesterol than controls. Enterocytes were isolated from mice (n=4, 12-14 weeks old) and resuspended in 4 ml of DMEM containing 0.05 microCi/ml of either [^14C]cholesterol (FIGS. 6A and 6C) or [^3H]oleic acid (FIGS. 6B and 6D). Enterocytes (100 microl) were collected at 5, 10, and 20 minutes, washed twice with DMEM, and cellular radioactivity was determined. The amounts of lipids were normalized to protein and plotted against time. FIGS. 6A and 6B, WT vs WT/myriocin; FIGS. 6C and 6D, WT vs Sptlc1^+/−, Values are mean±SD. *P<0.01.
# Cholesterol uptake by primary enterocyte: The enterocyte cholesterol uptake study was carried out as disclosed in: Iqbal J, Hussain M M. Evidence for multiple complementary pathways for efficient cholesterol absorption in mice. J Lipid Res. 2005; 46:1491-1501, which is incorporated herein by reference in its entirety.
# For further confirmation of the above in vivo observations, enterocytes were isolated from myriocin-treated or Sptlc1^+/− mice, as well as controls, incubated with radiolabeled cholesterol for varying times, and the cellular radioactivity was determined. […] Experiments were performed to study the uptake of [^3H]oleic acid.
# ABCG5 = assay: Western blot of small intestine homogenates, ABCG5; assay type: in vivo, mouse; settings: WT and apoE KO mice, compared with nontreated animals
# Description: FIG. 8 depicts that SPT deficiency decreased NPC1L1 and ABCA1, and increased ABCG5 in mouse small intestine. Tissue homogenates were prepared as described in Methods, and equal amounts of homogenates from each mouse were pooled in each group (n=5). A total of 50 microg pooled sample from each group was immunoblotted with antibodies against NPC1L1, ABCA1, and ABCG5. Immunoblots of beta (β)-actin were used as a loading control.
# Preparation and Western blot analysis of small intestine homogenates: A total of 50-100 mg of small intestine sample was homogenized and lysed proteins were immunoblotted, as previously described, (3) with a polyclonal rabbit antihuman NPC1L1 antiserum 69B, a polyclonal rabbit antimouse ABCG5 antiserum, a polyclonal antimouse ABCA1 antibody, and a monoclonal mouse anti-(beta)β-actin antibody.
# Next, Western blot measurements of NPC1L1 and ABCG5/G8 were completed, where the measurement were located in apical membranes of the enterocytes. […] Also, ABCA1 was measured, which is located in the basal membranes of the enterocytes and is involved in cholesterol secretion.
# cholesterol absorption = assay: Cholesterol absorption, fecal dual-isotope ratio method; assay type: in vivo, mouse; settings: single gavage, feces 24 hours
# Description: FIGS. 5A-I depict several graphs that illustrate that SPT deficient mice absorbed less cholesterol. Mice (n=6, 10-12 weeks old) were fasted for 5 hours and gavaged with 0.1 microCi [^14C]cholesterol and 0.2 microCi [^3H]sitostanol with 0.5 mg unlabeled cholesterol dissolved in 15 microl of olive oil. Feces were collected after 24 hours and lipids were extracted for counting (FIGS. 5A, 5D, and 5G, cholesterol absorption, WT vs WT/myriocin; apoE KO vs apoE KO/myriocin; WT vs Sptlc1^+/−, respectively). Blood was collected during the 24 hour period (Panels B, E, and H, [^14C]cholesterol in blood, WT vs WT/myriocin; apoE KO vs apoE KO/myriocin; WT vs Sptlc1^+/−, respectively). To test specificity, the mice were gavaged with 0.2 microCi [^3H]triolein together with 0.5 mg/ml cold cholesterol. Blood was collected during the 24 hour period (FIGS. 5C, 5F, and 5I, [^3H] glycerolipids in blood, WT versus WT/myriocin; apoE KO versus apoE KO/myriocin; WT versus Sptlc1^+/−, respectively). […]
# Cholesterol absorption studies: A classical fecal dual-isotope ratio method was used for the cholesterol absorption study. […] The cholesterol absorption ratio was calculated as: % absorption={1−[fecal(^14C/^3H)]/administered(^14C/^3H)}×100. In some cases, mice were sacrificed, plasma collected, and radioactivity counted. […] Each of these, as well as a part of the liver, were digested and radioactivity counted individually. […]
# [1] = Mouse plasma lipid measurement; assay type: in vivo; settings: for plasma Chol (cholesterol) / plasma PC (phosphatidylcholine) / plasma SM (sphingomyelin) / plasma TG (triglycerol): mean ± SD, N=6
# Description: Mice and diet: Male C57BL/6J and apoE KO (Apolipoprotien E knockout) mice with a C57BL/6J background were obtained from the Jackson Laboratory (Bar Harbor, Me.). Sptlc1 heterozygous KO mice with a C57BL/6 background were created and bred in the inventors' laboratory. Myriocin was mixed with a chow diet. Eight- to 12-week-old WT or apoE KO (n=6) mice received myriocin 0.3 mg kg^−1·d^−1 for 12 weeks. The myriocin dose was chosen from a previous dose-dependent experiment with apoE-KO mice. Controls consisted of WT or apoE KO mice fed a chow diet (n=6). Sptlc1 heterozygous KO (Sptlc1^+/−)(n=6) and WT mice were also fed a chow diet. […]
# As reported previously in (25), which is incorporated by reference herein, Sptlc1^+/− and WT mice had identical plasma lipid levels (Table 1).
# enterocytes = assay: Mouse enterocyte lipid measurement; assay type: in vivo
# Description: The mechanisms responsible for decreased cholesterol absorption in myriocin-treated or Sptlc1^+/− mice were explored. First, lipid levels were measured in enterocytes isolated from myriocin-treated and Sptlc1^+/− mice, as well as controls.
# [2] = myriocin-treated mice vs controls
smiles,measurement,setting,value
"CCCCCCC(=O)CCCCCC/C=C/C[C@@H](O)[C@H](O)[C@@](N)(CO)C(=O)O [Myriocin, myriocin]",uptake of [3H]oleic acid vs controls,primary enterocyte; enterocytes isolated from myriocin-treated mice,No significant changes
same,radiolabeled cholesterol uptake (cellular radioactivity) vs controls,"primary enterocyte; enterocytes isolated from myriocin-treated mice, 5, 10, 20 minutes",significantly less radioactivity
same,ABCG5 protein mass in small intestine,ABCG5,increased
same,reduction in cholesterol absorption compared with controls,"cholesterol absorption; myriocin-treated WT mice, P<0.01",36%
same,reduction in cholesterol absorption compared with controls,"cholesterol absorption; myriocin-treated apoE KO mice, P<0.001",50%
same,plasma Chol (cholesterol),[1]; ApoE KO mice,350 ± 42 mg/dL
same,plasma PC (phosphatidylcholine),[1]; ApoE KO mice,334 ± 49 mg/dL
same,plasma SM (sphingomyelin),[1]; ApoE KO mice,39 ± 4 mg/dL
same,plasma TG (triglycerol),[1]; ApoE KO mice,89 ± 13 mg/dL
same,"effect on plasma lipids, including SM, PC, and cholesterol levels",[1]; WT mice,no significant effect
same,plasma Chol (cholesterol),[1]; WT mice,95 ± 12 mg/dL
same,plasma PC (phosphatidylcholine),[1]; WT mice,155 ± 31 mg/dL
same,plasma SM (sphingomyelin),[1]; WT mice,22 ± 2 mg/dL
same,plasma TG (triglycerol),[1]; WT mice,71 ± 15 mg/dL
same,decrease of plasma SM compared with controls,"[1]; apoE KO mice, P<0.001",48%
same,decrease of plasma cholesterol compared with controls,"[1]; apoE KO mice, P<0.01",37%
same,enterocyte Chol (cholesterol),"enterocytes; WT mice, mean ± SD, N=5-7",16.2 ± 1.2 microg/mg protein
same,enterocyte PC (phosphatidylcholine),"enterocytes; WT mice, mean ± SD, N=5-7",27.9 ± 2.3 microg/mg protein
same,enterocyte SM (sphingomyelin),"enterocytes; WT mice, mean ± SD, N=5-7",6.2 ± 0.9 microg/mg protein
same,enterocyte TG (triglycerol),"enterocytes; WT mice, mean ± SD, N=5-7",11.1 ± 1.9 microg/mg protein
same,"SM levels in enterocytes, in words",enterocytes; [2],significantly decreases
same,"cellular cholesterol, phosphatidylcholine, or triglyceride levels in enterocytes, in words",enterocytes; [2],no effect
